Patent publication US7125572B2, “Tyrosinase inhibitor extract” (Kaoder Industry Company, Ltd., priority 2004, dated 2006)

Test system: tyrosinase
Experiment: Determination of tyrosinase inhibitory effect (L-DOPA substrate, absorbance at 475 nm)
Conditions: comparison with arbutin, determined in a way described in Example 4
Experimental: The activity of tyrosinase was determined at the wavelength of 475 nm and calculated from the decrease of the absorbance.
35 μl of the tyrosinase inhibitor extract of Example 1 and 35 μl of 80% propylene glycol were used as the test and control samples. The inhibition percent of the tyrosinase activity was calculated by the equation: Inhibition percentage (%) of the tyrosine activity=[1−(Absorbance of experiment sample)/(Absorbance of control sample)]×100%. The DOPA and tyrosinase solution (1000 units/ml in 16.7 mM potassium phosphate butter) used in the following experiments were purchased from Sigma Corp., USA.
15.1 of tyrosinase solutions was added to each (35 μl) of six samples of tyrosinase inhibitor extract of Example 1. The resultant solutions were maintained at 25. for 0, 1, 2, 3, 4, 5, 6 hours, respectively. 450.1 of L-DOPA substrate was added to each of the solutions.
15.1 of tyrosinase solutions was added to each (35 μl) of three samples of tyrosinase inhibitor extract of Example 1. The resultant solutions were maintained at 25., 37. and 50. for 1 hour, respectively. 450.1 of L-DOPA substrate was added to each of the solutions.
15.1 of tyrosinase solutions was added to each (35 μl) of five samples of tyrosinase inhibitor extract of Example 1. The resultant solutions were maintained at pH 4, 5, 6, 7 and 8 for 1 hour, respectively. […]

OC[C@H]1O[C@@H](Oc2ccc(O)cc2)[C@H](O)[C@@H](O)[C@@H]1O [Arbutin]
% inhibitory Activity: 32+−0.0%
